Test results reported in PMC10177510, “A Multicenter, Open-Label, Phase I/II Study of FN-1501 in Patients with Advanced Solid Tumors” (Cancers, 2023).

Experiment: Phase I/II dose escalation: safety and tolerability (DLT, TEAE)
Format: in vivo
Experimental: This Phase 1/2, FIH, open-label, multi-center, single-arm, dose-escalation study was conducted in pts with histologically or cytologically confirmed advanced solid tumors or R/R AML.
In the absence of worrisome toxicity, the remaining pts could be enrolled and dosed in that cohort. Safety evaluations were performed by investigators, the medical monitor, and the Sponsor. A Safety Monitoring Committee determined dose levels to be administered during dose escalation based on data available from the current and previous dose levels.

In the case of `CN1CCN(Cc2ccc(NC(=O)c3[nH]ncc3Nc3ncnc4[nH]ccc34)cc2)CC1` [FN-1501], the “Diarrhea, patients with event” value (72 mg/day, N = 3) was 1, the “Dizziness, patients with event” value (72 mg/day, N = 3) was 0 and the “Dyspnea, patients with event” value (72 mg/day, N = 3) was 0. The “Fatigue, patients with event” value (72 mg/day, N = 3) was 0, the “Infusion-related reaction, patients with event” value (shortened to “Infusion-related reaction”) (72 mg/day, N = 3) was 0 and the “Nausea, patients with event” value (72 mg/day, N = 3) was 1. For the same molecule, the “Oedema peripheral, patients with event” value (72 mg/day, N = 3) was 1, the “Pyrexia, patients with event” value (72 mg/day, N = 3) was 0 and the “Small intestinal obstruction, Grade ≥ 3 TEAE, n (%)” value (72 mg/day, N = 3) was 1. The “Total number of TEAEs” value (72 mg/day, N = 3) was 15, the “Total patients with at least 1 TEAE” value (72 mg/day, N = 3) was 2 and the “Vomiting, patients with event” value (72 mg/day, N = 3) was 0. The “Dose-Limiting Toxicity” value (96 mg/day, 5 patients) was 0, the “Abdominal pain, patients with event” value (96 mg/day, N = 5) was 0 and the “Back pain, patients with event” value (96 mg/day, N = 5) was 0. For the same molecule, the “Constipation, patients with event” value (96 mg/day, N = 5) was 1, the “Decreased appetite, patients with event” value (96 mg/day, N = 5) was 0 and the “Diarrhea, patients with event” value (96 mg/day, N = 5) was 1. For the same molecule, the “Diarrhoea, Grade ≥ 3 TEAE, n (%)” value (96 mg/day, N = 5) was 1, the “Dizziness, patients with event” value (96 mg/day, N = 5) was 1 and the “Dyspnea, patients with event” value (96 mg/day, N = 5) was 0. For the same molecule, the “Fatigue, patients with event” value (96 mg/day, N = 5) was 0, the “Infusion-related reaction” value (96 mg/day, N = 5) was 1 and the “Lipase increased, Grade ≥ 3 TEAE, n (%)” value (96 mg/day, N = 5) was 1. The “Nausea, patients with event” value (96 mg/day, N = 5) was 2, the “Oedema peripheral, patients with event” value (96 mg/day, N = 5) was 0 and the “Pneumonia aspiration, Grade ≥ 3 TEAE, n (%)” value (96 mg/day, N = 5) was 1. The “Pneumonia, Grade ≥ 3 TEAE, n (%)” value (96 mg/day, N = 5) was 1, the “Pneumothorax, Grade ≥ 3 TEAE, n (%)” value (96 mg/day, N = 5) was 1 and the “Pyrexia, patients with event” value (96 mg/day, N = 5) was 0. The “Total number of TEAEs” value (96 mg/day, N = 5) was 33, the “Total patients with at least 1 TEAE” value (96 mg/day, N = 5) was 5 and the “Vomiting, patients with event” value (96 mg/day, N = 5) was 2. For the same molecule, the “Dose-Limiting Toxicity” value (128 mg/day, 3 patients) was 0, the “Abdominal pain, patients with event” value (128 mg/day, N = 3) was 1 and the “Acute kidney injury, Grade ≥ 3 TEAE, n (%)” value (128 mg/day, N = 3) was 1. For the same molecule, the “Aspartate aminotransferase increased, Grade ≥ 3 TEAE, n (%)” value (128 mg/day, N = 3) was 1, the “Back pain, patients with event” value (128 mg/day, N = 3) was 1 and the “Blood creatinine increased, Grade ≥ 3 TEAE, n (%)” value (128 mg/day, N = 3) was 1. The “Constipation, patients with event” value (128 mg/day, N = 3) was 0, the “Decreased appetite, patients with event” value (128 mg/day, N = 3) was 1 and the “Diarrhea, patients with event” value (128 mg/day, N = 3) was 0. For the same molecule, the “Dizziness, patients with event” value (128 mg/day, N = 3) was 1, the “Dyspnea, patients with event” value (128 mg/day, N = 3) was 1 and the “Fatigue, patients with event” value (128 mg/day, N = 3) was 1. For the same molecule, the “Infusion-related reaction” value (128 mg/day, N = 3) was 0, the “Nausea, patients with event” value (128 mg/day, N = 3) was 1 and the “Oedema peripheral, patients with event” value (128 mg/day, N = 3) was 1. For the same molecule, the “Pyrexia, patients with event” value (128 mg/day, N = 3) was 1, the “Total number of TEAEs” value (128 mg/day, N = 3) was 43 and the “Total patients with at least 1 TEAE” value (128 mg/day, N = 3) was 2. The “Vomiting, patients with event” value (128 mg/day, N = 3) was 0, the “Dose-Limiting Toxicity” value (170 mg/day, 4 patients) was 0 and the “Abdominal pain, patients with event” value (170 mg/day, N = 4) was 1. The “Back pain, patients with event” value (170 mg/day, N = 4) was 0, the “Bacteraemia, Grade ≥ 3 TEAE, n (%)” value (170 mg/day, N = 4) was 1 (25) and the “Constipation, patients with event” value (170 mg/day, N = 4) was 2. For the same molecule, the “Decreased appetite, patients with event” value (170 mg/day, N = 4) was 1, the “Dehydration, Grade ≥ 3 TEAE, n (%)” value (170 mg/day, N = 4) was 1 (25) and the “Diarrhea, patients with event” value (170 mg/day, N = 4) was 2. The “Dizziness, patients with event” value (170 mg/day, N = 4) was 1, the “Dyspnea, patients with event” value (170 mg/day, N = 4) was 2 and the “Fatigue, patients with event” value (170 mg/day, N = 4) was 4. For the same molecule, the “Hyponatraemia, Grade ≥ 3 TEAE, n (%)” value (170 mg/day, N = 4) was 1, the “Hypoxia, Grade ≥ 3 TEAE, n (%)” value (170 mg/day, N = 4) was 1 (25) and the “Infusion-related reaction” value (170 mg/day, N = 4) was 2. For the same molecule, the “Lethargy, Grade ≥ 3 TEAE, n (%)” value (170 mg/day, N = 4) was 1 (25), the “Nausea, patients with event” value (170 mg/day, N = 4) was 1 and the “Neutropenia, Grade ≥ 3 TEAE, n (%)” value (170 mg/day, N = 4) was 1 (25). For the same molecule, the “Oedema peripheral, patients with event” value (170 mg/day, N = 4) was 0, the “Pyrexia, patients with event” value (170 mg/day, N = 4) was 0 and the “Total number of TEAEs” value (170 mg/day, N = 4) was 60. For the same molecule, the “Total patients with at least 1 TEAE” value (170 mg/day, N = 4) was 4, the “Vomiting, patients with event” value (170 mg/day, N = 4) was 1 and the “DLT of Grade 4 thrombocytopenia, pts” value (226 mg/d cohort) was 1 (25%). For the same molecule, the “pts with ≥Grade 3 AEs that qualified as DLTs” value (226 mg/d cohort) was 50%, the “Abdominal pain, patients with event” value (226 mg/day, N = 4) was 0 and the “Back pain, Grade ≥ 3 TEAE, n (%)” value (226 mg/day, N = 4) was 2. The “Back pain, patients with event” value (226 mg/day, N = 4) was 2, the “Constipation, patients with event” value (226 mg/day, N = 4) was 0 and the “Decreased appetite, patients with event” value (226 mg/day, N = 4) was 1. For the same molecule, the “Diarrhea, patients with event” value (226 mg/day, N = 4) was 3, the “Diarrhoea, Grade ≥ 3 TEAE, n (%)” value (226 mg/day, N = 4) was 1 (25) and the “Dizziness, patients with event” value (226 mg/day, N = 4) was 1. For the same molecule, the “Dyspnea, patients with event” value (226 mg/day, N = 4) was 0, the “Fatigue, patients with event” value (226 mg/day, N = 4) was 0 and the “Hyponatraemia, Grade ≥ 3 TEAE, n (%)” value (226 mg/day, N = 4) was 1. For the same molecule, the “Hypophosphataemia, Grade ≥ 3 TEAE, n (%)” value (226 mg/day, N = 4) was 1 (25), the “Infusion related reaction, Grade ≥ 3 TEAE, n (%)” value (226 mg/day, N = 4) was 1 (25) and the “Infusion-related reaction” value (226 mg/day, N = 4) was 1. For the same molecule, the “Iron deficiency anaemia, Grade ≥ 3 TEAE, n (%)” value (226 mg/day, N = 4) was 1 (25), the “Nausea, patients with event” value (226 mg/day, N = 4) was 1 and the “Oedema peripheral, patients with event” value (226 mg/day, N = 4) was 0. For the same molecule, the “Pneumonia, Grade ≥ 3 TEAE, n (%)” value (226 mg/day, N = 4) was 1 (25), the “Pyrexia, patients with event” value (226 mg/day, N = 4) was 0 and the “Thrombocytopenia, Grade ≥ 3 TEAE, n (%)” value (226 mg/day, N = 4) was 1 (25). The “Total number of TEAEs” value (226 mg/day, N = 4) was 46, the “Total patients with at least 1 TEAE” value (226 mg/day, N = 4) was 4 and the “Vomiting, patients with event” value (226 mg/day, N = 4) was 2. The “Maximum tolerated dose (MTD)” value (IV TIW 2 weeks on, 1 week off) was 170 mg/day, the “Maximum tolerated dose (MTD)” value (IV three times a week for 2 weeks, 21-day cycles) was 170 mg and the “Abdominal distension, Grade ≥ 3 TEAE, n (%)” value (Total, N = 48) was 1 (2). For the same molecule, the “Abdominal pain, Grade ≥ 3 TEAE, n (%)” value (Total, N = 48) was 1, the “Abdominal pain, patients with event” value (Total, N = 48) was 9 and the “Acute kidney injury, Grade ≥ 3 TEAE, n (%)” value (Total, N = 48) was 1. For the same molecule, the “Adrenal insufficiency, Grade ≥ 3 TEAE, n (%)” value (Total, N = 48) was 1 (2), the “Anaemia, Grade ≥ 3 TEAE, n (%)” value (Total, N = 48) was 1 (2) and the “Aspartate aminotransferase increased, Grade ≥ 3 TEAE, n (%)” value (Total, N = 48) was 1. For the same molecule, the “Back pain, patients with event” value (Total, N = 48) was 6, the “Bacteraemia, Grade ≥ 3 TEAE, n (%)” value (Total, N = 48) was 1 and the “Bacterial sepsis, Grade ≥ 3 TEAE, n (%)” value (Total, N = 48) was 1. The “Blood alkaline phosphatase increased, Grade ≥ 3 TEAE, n (%)” value (Total, N = 48) was 1 (2), the “Blood bilirubin increased, Grade ≥ 3 TEAE, n (%)” value (Total, N = 48) was 1 (2) and the “Blood creatinine increased, Grade ≥ 3 TEAE, n (%)” value (Total, N = 48) was 1. For the same molecule, the “Catheter site infection, Grade ≥ 3 TEAE, n (%)” value (Total, N = 48) was 1, the “Constipation, patients with event” value (Total, N = 48) was 7 and the “Decreased appetite, patients with event” value (Total, N = 48) was 6. The “Dehydration, Grade ≥ 3 TEAE, n (%)” value (Total, N = 48) was 1, the “Delirium, Grade ≥ 3 TEAE, n (%)” value (Total, N = 48) was 1 and the “Dizziness, patients with event” value (Total, N = 48) was 7. The “Dyspnea, patients with event” value (Total, N = 48) was 6, the “Fatigue, patients with event” value (Total, N = 48) was 15 and the “Hypophosphataemia, Grade ≥ 3 TEAE, n (%)” value (Total, N = 48) was 1. For the same molecule, the “Hypoxia, Grade ≥ 3 TEAE, n (%)” value (Total, N = 48) was 1, the “Infusion related reaction, Grade ≥ 3 TEAE, n (%)” value (Total, N = 48) was 1 and the “Infusion-related reaction” value (Total, N = 48) was 7. The “Iron deficiency anaemia, Grade ≥ 3 TEAE, n (%)” value (Total, N = 48) was 1, the “Lethargy, Grade ≥ 3 TEAE, n (%)” value (Total, N = 48) was 1 and the “Lipase increased, Grade ≥ 3 TEAE, n (%)” value (Total, N = 48) was 1 (2). The “Lung infection, Grade ≥ 3 TEAE, n (%)” value (Total, N = 48) was 1, the “Neutropenia, Grade ≥ 3 TEAE, n (%)” value (Total, N = 48) was 1 and the “Oedema peripheral, patients with event” value (Total, N = 48) was 5. For the same molecule, the “Peritonitis, Grade ≥ 3 TEAE, n (%)” value (Total, N = 48) was 1 (2), the “Pneumonia aspiration, Grade ≥ 3 TEAE, n (%)” value (Total, N = 48) was 1 (2) and the “Pneumothorax, Grade ≥ 3 TEAE, n (%)” value (Total, N = 48) was 1 (2). For the same molecule, the “Pyrexia, patients with event” value (Total, N = 48) was 5, the “Sepsis, Grade ≥ 3 TEAE, n (%)” value (Total, N = 48) was 1 (2) and the “Stomatitis, Grade ≥ 3 TEAE, n (%)” value (Total, N = 48) was 1. The “Syncope, Grade ≥ 3 TEAE, n (%)” value (Total, N = 48) was 1 (2), the “Thrombocytopenia, Grade ≥ 3 TEAE, n (%)” value (Total, N = 48) was 1 and the “Total number of TEAEs” value (Total, N = 48) was 381. The “Total patients with at least 1 TEAE” value (Total, N = 48) was 45, the “Vascular access complication, Grade ≥ 3 TEAE, n (%)” value (Total, N = 48) was 1 and the “Grade 1–2 diarrhea (TEAE), pts” value (abstract, all doses) was 26%. The “Grade 1–2 fatigue (TEAE), pts” value (abstract, all doses) was 34%, the “Grade 1–2 nausea (TEAE), pts” value (abstract, all doses) was 32% and the “Treatment-related adverse events (TRAEs), pts” value (all doses 2.5 to 226 mg IV) was 64%. The “Abdominal distension, pts” value (all doses, N = 48) was 4, the “Gastrointestinal (GI) disorders, pts” value (all doses, N = 48) was 30 (63%) and the “Grade 1 or 2 fatigue, pts” value (discussion, all doses) was 21%. The “Grade 1 or 2 nausea, pts” value (discussion, all doses) was 19% and the DLTs (doses of 170 mg or lower) was “No DLTs”.
